Reference: the Kinase Knowledgebase extract (Sharma et al. 2016)

Each molecule was assayed against MAPK14 (human) (UniProt Q16539) (assay: Inhibition of MAPK14 Kinase Activity).
MAPK14 (human), sequence (Q16539 whole entry, looked up): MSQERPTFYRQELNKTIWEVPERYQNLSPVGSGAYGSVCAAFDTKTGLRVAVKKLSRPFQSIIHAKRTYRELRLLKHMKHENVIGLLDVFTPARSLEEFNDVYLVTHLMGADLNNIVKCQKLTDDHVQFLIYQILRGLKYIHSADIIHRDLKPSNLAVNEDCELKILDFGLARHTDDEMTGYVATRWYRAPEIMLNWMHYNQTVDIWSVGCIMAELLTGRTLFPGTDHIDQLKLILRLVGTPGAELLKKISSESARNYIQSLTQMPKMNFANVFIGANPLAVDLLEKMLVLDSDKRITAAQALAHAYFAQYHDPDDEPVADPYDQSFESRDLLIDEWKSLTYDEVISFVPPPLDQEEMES

Row | IC50 | Compound
1 | 114 nM | COCCn1c(SC)nc(-c2ccc(F)cc2)c1-c1ccnc(NC(=O)C[C@@H](C)c2ccccc2)c1
2 | 1760 nM | COCCn1c(SC)nc(-c2ccc(F)cc2)c1-c1ccnc(NC(=O)C(C)(C)C)c1
3 | 224 nM | COCCn1c(SC)nc(-c2ccc(F)cc2)c1-c1ccnc(NC(=O)CCC2CCCC2)c1
4 | 2450 nM | COCCn1c(SC)nc(-c2ccc(F)cc2)c1-c1ccnc(NC(=O)CCc2ccc(C(C)(C)C)cc2)c1
5 | 219 nM | COCCn1c(SC)nc(-c2ccc(F)cc2)c1-c1ccnc(NC(=O)CC2CCCCC2)c1
6 | 48 nM | COCCn1c(SC)nc(-c2ccc(F)cc2)c1-c1ccnc(NC(=O)CCc2ccc(OC)cc2)c1
7 | 392 nM | COCCn1c(SC)nc(-c2ccc(F)cc2)c1-c1ccnc(NC(=O)c2ccc(OC)cc2)c1
8 | 213 nM | COCCn1c(SC)nc(-c2ccc(F)cc2)c1-c1ccnc(NC(=O)Cc2ccc(OC)cc2)c1
9 | 116 nM | COCCn1c(SC)nc(-c2ccc(F)cc2)c1-c1ccnc(NC(=O)C2CCC2)c1
10 | 91 nM | COCCn1c(SC)nc(-c2ccc(F)cc2)c1-c1ccnc(NC(=O)CCc2cccc(OC)c2OC)c1
11 | 115 nM | COCCn1c(SC)nc(-c2ccc(F)cc2)c1-c1ccnc(NC(=O)CCCCc2ccccc2)c1
12 | 1420 nM | COCCn1c(SC)nc(-c2ccc(F)cc2)c1-c1ccnc(N)c1
13 | 77 nM | COCCn1c(SC)nc(-c2ccc(F)cc2)c1-c1ccnc(NC(=O)C(C)Cc2ccccc2)c1 (stereo not given)
14 | 179 nM | COCCn1c(SC)nc(-c2ccc(F)cc2)c1-c1ccnc(NC(=O)CCC(C)C)c1
15 | 156 nM | COCCn1c(SC)nc(-c2ccc(F)cc2)c1-c1ccnc(NC(=O)C2CCCCC2)c1
16 | 195 nM | COCCn1c(SC)nc(-c2ccc(F)cc2)c1-c1ccnc(NC(=O)C(Oc2ccccc2)C(C)C)c1 (stereo not given)
17 | 93 nM | COCCn1c(SC)nc(-c2ccc(F)cc2)c1-c1ccnc(NC(=O)CCc2ccccc2OC)c1
18 | 83 nM | CCCCC(=O)Nc1cc(-c2c(-c3ccc(F)cc3)nc(SC)n2CCOC)ccn1
19 | 26 nM | COCCn1c(SC)nc(-c2ccc(F)cc2)c1-c1ccnc(NCCc2ccccc2)c1
20 | 103 nM | COCCn1c(SC)nc(-c2ccc(F)cc2)c1-c1ccnc(NC(=O)C(C)Oc2ccccc2)c1 (stereo not given)
21 | 254 nM | COCCn1c(SC)nc(-c2ccc(F)cc2)c1-c1ccnc(NC(=O)CCc2ccc(SC)cc2)c1
22 | 193 nM | COCCn1c(SC)nc(-c2ccc(F)cc2)c1-c1ccnc(NC(=O)/C=C/c2ccccc2)c1
23 | 108 nM | COCCn1c(SC)nc(-c2ccc(F)cc2)c1-c1ccnc(NC(C)=O)c1

Row | IC50 | Compound
24 | 84 nM | COCCn1c(SC)nc(-c2ccc(F)cc2)c1-c1ccnc(NC(=O)CCc2ccc(OC)c(OC)c2OC)c1
25 | 108 nM | COCCn1c(SC)nc(-c2ccc(F)cc2)c1-c1ccnc(NC(=O)CC2CCCC2)c1
26 | 458 nM | COCCn1c(SC)nc(-c2ccc(F)cc2)c1-c1ccnc(NC(=O)C2CCCC2)c1
27 | 220 nM | COCCn1c(SC)nc(-c2ccc(F)cc2)c1-c1ccnc(NC(=O)CCc2ccc(S(C)(=O)=O)cc2)c1
28 | 93 nM | COCCn1c(SC)nc(-c2ccc(F)cc2)c1-c1ccnc(NC(=O)CCc2cccc(OC)c2)c1
29 | 128 nM | COCCn1c(SC)nc(-c2ccc(F)cc2)c1-c1ccnc(NC(=O)C2CC2)c1
30 | 196 nM | COCCn1c(SC)nc(-c2ccc(F)cc2)c1-c1ccnc(NC(=O)CCC2CCCCC2)c1
31 | 133 nM | COCCn1c(SC)nc(-c2ccc(F)cc2)c1-c1ccnc(NC(=O)C[C@H](C)c2ccccc2)c1
32 | 103 nM | COCCn1c(SC)nc(-c2ccc(F)cc2)c1-c1ccnc(NC(=O)CC(C)C)c1
33 | 386 nM | COCCn1c(SC)nc(-c2ccc(F)cc2)c1-c1ccnc(NC(=O)Cc2ccccc2)c1
34 | 63 nM | COCCn1c(SC)nc(-c2ccc(F)cc2)c1-c1ccnc(NC(=O)CCc2ccccc2)c1
35 | 90 nM | COCCn1c(SC)nc(-c2ccc(F)cc2)c1-c1ccnc(NC(=O)CCc2ccc(C)cc2)c1
36 | 35 nM | COCCn1c(SC)nc(-c2ccc(F)cc2)c1-c1ccnc(NCC(C)c2ccccc2)c1 (stereo not given)
37 | 60 nM | COCCn1c(SC)nc(-c2ccc(F)cc2)c1-c1ccnc(NC(=O)CC(C)c2ccccc2)c1 (stereo not given)
38 | 123 nM | COCCn1c(SC)nc(-c2ccc(F)cc2)c1-c1ccnc(NC(=O)CCc2cc(OC)c(OC)c(OC)c2)c1
39 | 97 nM | COCCn1c(SC)nc(-c2ccc(F)cc2)c1-c1ccnc(NC(=O)CCCc2ccc(OC)cc2)c1
40 | 115 nM | COCCn1c(SC)nc(-c2ccc(F)cc2)c1-c1ccnc(NC(=O)CCCc2ccccc2)c1
41 | 216 nM | COCCn1c(SC)nc(-c2ccc(F)cc2)c1-c1ccnc(NC(=O)CCc2ccc(OC)c(OC)c2)c1
42 | 168 nM | COCCn1c(SC)nc(-c2ccc(F)cc2)c1-c1ccnc(NC(=O)[C@H]2C[C@@H]2c2ccccc2)c1
43 | 311 nM | CCC(C)C(=O)Nc1cc(-c2c(-c3ccc(F)cc3)nc(SC)n2CCOC)ccn1 (stereo not given)
44 | 178 nM | COCCn1c(SC)nc(-c2ccc(F)cc2)c1-c1ccnc(NC(=O)CCc2ccc(OC)cc2OC)c1
45 | 244 nM | COCCn1c(SC)nc(-c2ccc(F)cc2)c1-c1ccnc(NC(=O)c2ccccc2)c1
